Results published in the supplement of paper PMC10307832.

Assays:
Test in all cases: relative viability (nuclei count vs DMSO), 5 days (fraction); higher = more cells survive
[1] = compound: CCCS(=O)(=O)Nc1ccc(F)c(C(=O)c2c[nH]c3ncc(-c4ccc(Cl)cc4)cc23)c1F [Vemurafenib] + Cc1cc(Nc2cc(N3CCN(C)CC3)nc(Sc3ccc(NC(=O)C4CC4)cc3)n2)n[nH]1 [Tozasertib] (partner 0.1 µM)
Outline: (§1)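 Lung cancer cell lines were pin-tool dosed in 1536-well plates on the day after seeding, with either a lone drug or a fixed anchor-drug dose plus five library-drug doses (not always all listed) in √10 steps. Nuclei were counted on 4× images after 5 days. Relative viability is the ratio of treated-well to vehicle-well nuclei counts, with each value a median of duplicate plates.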

[2] = compound: Cc1nc(NC(=O)N2CCC[C@H]2C(N)=O)sc1-c1ccnc(C(C)(C)C(F)(F)F)c1 [Alpelisib] + N=C(N)NC(=N)NCCc1ccccc1 [Phenformin] (partner 250 µM)
Outline: as §1

[3] = compound: Cc1nc(NC(=O)N2CCC[C@H]2C(N)=O)sc1-c1ccnc(C(C)(C)C(F)(F)F)c1 [Alpelisib] + NC(=O)Nc1cc(-c2cccc(F)c2)sc1C(=O)N[C@H]1CCCNC1 [AZD7762] (partner 0.2 µM)
Outline: as §1

[4] = compound: CCCS(=O)(=O)Nc1ccc(F)c(C(=O)c2c[nH]c3ncc(-c4ccc(Cl)cc4)cc23)c1F [Vemurafenib] + O=C(c1cc(Cc2n[nH]c(=O)c3ccccc23)ccc1F)N1CCN(C(=O)C2CC2)CC1 [Olaparib] (partner 8 µM)
Outline: as §1

| Cell Line | relative viability ([1]; first compound 0.03162 µM) | relative viability ([1]; first compound 0.1 µM) | relative viability ([1]; first compound 0.3162 µM) | relative viability ([1]; first compound 1 µM) | relative viability ([2]; first compound 0.04 µM) | relative viability ([2]; first compound 0.1265 µM) | relative viability ([2]; first compound 0.4 µM) | relative viability ([2]; first compound 1.265 µM) | relative viability ([2]; first compound 4 µM) | relative viability ([3]; first compound 0.04 µM) | relative viability ([3]; first compound 0.1265 µM) | relative viability ([3]; first compound 0.4 µM) | relative viability ([3]; first compound 1.265 µM) | relative viability ([3]; first compound 4 µM) | relative viability ([4]; first compound 0.03162 µM) | relative viability ([4]; first compound 0.3162 µM) | relative viability ([4]; first compound 1 µM) | relative viability ([4]; first compound 0.1 µM) |
| --- | --- | --- | --- | --- | --- | --- | --- | --- | --- | --- | --- | --- | --- | --- | --- | --- | --- | --- |
| NCI-H1944 | 0.268 | 0.201 | 0.274 | 0.256 | 0.194 | 0.214 | 0.182 | 0.16 | 0.138 | 0.452 | 0.6 | 0.605 | 0.3 | 0.344 | 0.426 | 0.384 | 0.359 |  |
| NCI-H1395 | 0.722 | 0.815 |  | 0.779 | 0.458 | 0.395 | 0.46 | 0.374 | 0.434 | 0.438 | 0.379 | 0.404 | 0.393 | 0.392 | 0.405 | 0.429 | 0.482 | 0.506 |
| 201T | 0.95 | 0.915 | 0.925 | 0.975 | 0.437 | 0.485 | 0.428 | 0.348 | 0.349 | 0.616 | 0.636 | 0.546 | 0.477 | 0.469 | 0.828 | 0.86 | 0.828 | 0.806 |
| NCI-H2405 | 0.756 | 0.708 |  | 0.717 | 0.371 | 0.345 | 0.368 | 0.304 | 0.272 | 0.763 | 0.728 | 0.686 | 0.446 | 0.428 | 0.857 |  | 0.937 | 0.893 |
| RERF-LC-KJ | 0.486 | 0.487 | 0.415 | 0.397 | 0.427 | 0.394 | 0.433 | 0.345 | 0.33 | 0.871 | 0.99 | 1.5 | 0.762 | 0.724 | 0.842 | 0.923 | 1.06 | 0.944 |
| NCI-H596 | 0.886 | 0.767 | 0.813 | 0.904 | 0.669 | 0.709 | 0.695 | 0.421 | 0.329 | 0.895 | 1.05 | 1.03 | 0.725 | 0.472 | 0.742 | 0.63 | 0.719 | 0.657 |
| NCI-H1993 | 0.473 |  | 0.569 | 0.571 | 0.501 | 0.534 | 0.443 | 0.539 | 0.507 | 0.722 | 0.656 | 0.695 | 0.539 | 0.472 | 0.976 | 1.26 | 1.12 |  |
| EPLC-272H | 0.277 | 0.106 | 0.281 | 0.182 | 0.303 | 0.267 | 0.351 | 0.279 | 0.244 | 0.237 | 0.251 | 0.24 | 0.271 | 0.186 | 0.717 | 0.834 | 0.867 | 0.742 |
| NCI-H1915 | 0.436 | 0.439 | 0.411 | 0.342 | 0.361 | 0.378 | 0.389 | 0.346 | 0.347 | 0.688 | 0.713 | 0.69 | 0.676 | 0.611 | 0.263 | 0.242 | 0.244 | 0.25 |
| LC-2-ad | 0.396 | 0.466 |  | 0.44 | 0.603 | 0.549 | 0.586 | 0.338 | 0.427 | 0.812 | 0.874 | 0.863 | 0.684 | 0.583 | 0.691 | 0.763 | 0.69 | 0.645 |
| NCI-H2126 | 0.812 | 0.786 |  | 0.809 | 0.541 | 0.498 | 0.501 | 0.381 | 0.343 | 0.998 | 1.01 | 0.945 | 0.904 | 0.769 | 0.835 | 0.92 | 0.922 | 0.956 |
| HCC-44 | 0.829 | 0.917 |  | 0.763 | 0.248 | 0.174 | 0.187 | 0.141 | 0.161 | 1 | 1.02 | 1.02 | 1.03 | 1.07 | 0.985 | 0.992 | 0.99 | 0.992 |
| HOP-62 | 0.418 | 0.372 | 0.332 | 0.389 | 0.642 | 0.611 | 0.761 | 0.561 | 0.633 | 0.607 | 0.386 | 1.21 | 0.651 | 0.614 | 0.38 | 0.412 | 0.438 | 0.388 |
| LCLC-103H | 0.476 | 0.395 | 0.493 | 0.487 | 0.344 | 0.347 | 0.311 | 0.245 | 0.272 | 0.72 | 0.872 | 0.631 | 0.61 | 0.591 | 0.644 | 0.742 | 0.797 | 0.71 |
| HARA | 0.0946 | 0.0784 | 0.138 | 0.12 | 0.48 | 0.451 | 0.555 | 0.331 | 0.301 | 0.364 | 0.334 | 0.398 | 0.249 | 0.442 | 0.761 | 0.899 | 0.942 | 0.289 |
| NCI-H2087 | 0.249 | 0.236 |  | 0.132 | 0.491 | 0.483 | 0.501 | 0.36 | 0.284 | 1.39 | 1.3 | 1.59 | 1.22 | 1.36 | 0.506 | 0.504 | 0.47 | 0.588 |
| HCC-78 | 0.405 | 0.316 | 0.507 | 0.468 | 0.708 | 0.54 | 0.708 | 0.471 | 0.428 | 0.726 | 0.515 | 0.293 | 0.362 | 0.377 | 0.73 | 1.13 | 0.881 | 0.784 |
| NCI-H1437 | 0.404 | 0.381 | 0.396 | 0.363 | 0.326 | 0.296 | 0.291 | 0.232 | 0.215 | 1.12 | 1.18 | 1.12 | 1.02 | 1.06 | 0.629 | 0.615 | 0.637 | 0.589 |
